In patent US20250163051A1, “PYRIMIDO AROMATIC RING COMPOUND AND USE THEREOF IN DRUG” (SUNSHINE LAKE PHARMA CO., LTD., priority 2022, published 2025):
Where two headings read alike, the source gives them in different places.

Columns and labels:
hTLR8 = target: T1, hTLR8 (Homo sapiens, UniProt Q9NR97); assay: Agonistic activity on human TLR8 in HEK-Blue hTLR8 cells (QUANTI-Blue); type: cell-based; conditions: 24 h incubation, OD650, read-out: hTLR 8 EC50
T1 construct: expressed in transfected cells; host or cells: HEK-Blue hTLR8 cells
T1 sequence (Q9NR97 27-1041): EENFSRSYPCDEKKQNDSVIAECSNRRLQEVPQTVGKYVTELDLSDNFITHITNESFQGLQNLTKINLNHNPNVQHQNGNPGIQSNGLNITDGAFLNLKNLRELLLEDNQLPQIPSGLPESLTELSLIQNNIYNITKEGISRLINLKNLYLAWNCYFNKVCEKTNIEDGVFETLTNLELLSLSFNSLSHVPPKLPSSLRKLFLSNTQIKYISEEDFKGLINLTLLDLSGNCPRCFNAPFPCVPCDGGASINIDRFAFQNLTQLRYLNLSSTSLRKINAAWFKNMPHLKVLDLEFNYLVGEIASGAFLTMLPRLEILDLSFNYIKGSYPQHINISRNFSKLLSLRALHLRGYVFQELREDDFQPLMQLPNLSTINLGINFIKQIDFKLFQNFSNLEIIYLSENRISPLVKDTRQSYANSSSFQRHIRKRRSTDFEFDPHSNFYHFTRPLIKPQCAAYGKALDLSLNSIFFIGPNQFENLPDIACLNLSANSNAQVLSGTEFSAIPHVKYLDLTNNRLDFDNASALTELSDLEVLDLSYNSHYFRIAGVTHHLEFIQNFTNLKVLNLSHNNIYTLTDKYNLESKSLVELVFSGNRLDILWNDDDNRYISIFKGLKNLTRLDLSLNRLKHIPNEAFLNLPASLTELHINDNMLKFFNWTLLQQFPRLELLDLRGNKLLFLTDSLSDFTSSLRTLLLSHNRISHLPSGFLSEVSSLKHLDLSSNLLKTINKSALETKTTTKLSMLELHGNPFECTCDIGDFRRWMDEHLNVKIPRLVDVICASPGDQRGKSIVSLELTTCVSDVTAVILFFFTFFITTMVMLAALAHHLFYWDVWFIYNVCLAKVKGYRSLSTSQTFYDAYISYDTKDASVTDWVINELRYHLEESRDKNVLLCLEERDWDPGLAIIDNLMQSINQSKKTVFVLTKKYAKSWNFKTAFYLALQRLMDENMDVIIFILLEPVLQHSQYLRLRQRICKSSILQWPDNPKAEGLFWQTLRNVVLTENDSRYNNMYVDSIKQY

CYP1A2 = target: T2, CYP1A2 (Homo sapiens, UniProt P05177); assay: Inhibition of human liver microsomal CYP1A2; type: in vitro ADME; conditions: human liver microsomes, 10 μM test substance; read-out: Relative inhibition rate (%) CYP1A2
T2 construct: from tissue; host or cells: human liver microsomes
T2 sequence (P05177 1-516): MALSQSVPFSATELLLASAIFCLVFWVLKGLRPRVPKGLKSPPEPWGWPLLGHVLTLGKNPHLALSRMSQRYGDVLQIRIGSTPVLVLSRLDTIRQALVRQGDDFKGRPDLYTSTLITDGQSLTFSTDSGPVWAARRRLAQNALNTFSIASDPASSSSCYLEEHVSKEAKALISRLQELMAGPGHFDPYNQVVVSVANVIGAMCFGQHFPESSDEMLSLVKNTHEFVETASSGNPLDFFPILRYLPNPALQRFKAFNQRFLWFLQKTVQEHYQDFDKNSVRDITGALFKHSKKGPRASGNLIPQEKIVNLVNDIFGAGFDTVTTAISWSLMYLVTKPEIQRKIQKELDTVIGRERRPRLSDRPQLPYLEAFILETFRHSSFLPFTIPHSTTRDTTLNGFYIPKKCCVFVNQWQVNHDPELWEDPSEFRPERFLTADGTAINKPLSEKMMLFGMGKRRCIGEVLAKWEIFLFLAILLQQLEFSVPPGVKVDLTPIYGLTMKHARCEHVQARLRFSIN
Experimental: (§1) Experimental purpose: The inhibitory effects of the test compounds on the major metabolizing enzymes CYP1A2, CYP2C19, CYP2D6 and CYP3A4 in microsomes were evaluated using the human liver microsomal system. Experimental method: The test substance was incubated with a suspension of human liver microsomes containing cytochrome P450 enzymes CYP1A2, CYP2C19, CYP2D6 and CYP3A4 at a concentration of 10 μM in the final incubation system. The known substrates were metabolized by the corresponding single enzymes to generate specific metabolites, and the metabolites were determined by UPLC-MS/MS method. The relative inhibition rate (%) was calculated by the percentage reduction of metabolite production by the test compound and solvent DMSO in the same time period. N is the concentration value of the probe substrate metabolite and it is assumed that the […] with or without inhibitor at 0 min is 0. N+inh is the metabolite concentration in the group with inhibitor, and Nveh is the metabolite concentration in the group without inhibitor. The results of the inhibition test of the compounds of the present invention on human liver microsomal CYP enzymes are shown in Table C.

[1] = Cell toxicity (Celltiter-Glo) in HEK-Blue hTLR8 cells; conditions: human
Experimental: Purpose: HEK-Blue™ hTLR7 and HEK-Blue™ hTLR8 cells were used to detect the agonist and cytotoxic activities of compounds against hTLR7 and hTLR8.
The experimental steps were as shown below: • 1) Preparation of compound: The compound was prepared into a 20 mM stock solution with DMSO, and then the stock solution was diluted 3-fold in a gradient and added to a 96-well plate, for a total of 10 concentrations, with duplicate wells for each concentration. For negative control wells, 0.5 μL DMSO was added to each well. The final DMSO concentration was 0.5%. • 2) HEK-Blue™ hTLR7 or HEK-Blue™ hTLR8 cells were suspended in culture medium and then seeded into 96-well plates containing compounds at a cell count of 50,000 per well. The compounds and cells were incubated for 24 h at 37° C., 5% Co2. • 3) QUANTI-Blue was used for the detection solution: to a mixture of 1 mL of QB reagent and 1 mL of QB buffer was added 98 mL of sterile water, the mixture was mixed and dissolved, and then placed at room temperature for 10 min. • 4) Activity test of the compound: 20 μL of the culture supernatant in step 2) was added to each well of a 96-well plate containing 180 μL of QUANTI-Blue detection solution. After incubation at 37° C. for 1 h, the absorbance at 650 nm (OD650) was detected using a multifunctional microplate reader Flextation III. • 5) Detection of cell activity: The chemiluminescent signal (RLU) was detected using the multifunctional microplate reader Flextation III according to the instructions of Celltiter-Glo. • 6) Data analysis
Detection of cell activity: The calculation formula for cell activity % is as follows.
The cell activity % values were analyzed using GraphPad Prism software, and the compound dose-effect curves were fitted to calculate the CC50 values of the compounds.
Cell activity %=RLU compound/RLU DMSO Control*100%

CYP2C19 = target: T3, CYP2C19 (Homo sapiens, UniProt P33261); assay: Inhibition of human liver microsomal CYP2C19; type: in vitro ADME; conditions: human liver microsomes, 10 μM test substance; read-out: Relative inhibition rate (%) CYP2C19
T3 construct: from tissue; host or cells: human liver microsomes
T3 sequence (P33261 whole entry): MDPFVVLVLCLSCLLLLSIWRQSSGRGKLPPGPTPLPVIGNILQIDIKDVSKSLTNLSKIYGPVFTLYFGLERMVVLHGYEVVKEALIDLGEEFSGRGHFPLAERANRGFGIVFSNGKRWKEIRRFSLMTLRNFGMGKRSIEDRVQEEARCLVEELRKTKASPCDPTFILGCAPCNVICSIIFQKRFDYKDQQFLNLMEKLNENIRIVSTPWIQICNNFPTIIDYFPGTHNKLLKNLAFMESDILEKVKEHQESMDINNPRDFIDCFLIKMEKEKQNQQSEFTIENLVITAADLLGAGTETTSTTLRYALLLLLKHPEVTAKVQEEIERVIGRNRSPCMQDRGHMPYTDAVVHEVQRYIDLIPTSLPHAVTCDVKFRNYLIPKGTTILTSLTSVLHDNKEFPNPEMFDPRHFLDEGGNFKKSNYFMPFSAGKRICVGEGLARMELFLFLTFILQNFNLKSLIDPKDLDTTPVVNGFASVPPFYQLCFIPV
Experimental: as §1

CYP2D6 = target: T4, CYP2D6 (Homo sapiens, UniProt P10635); assay: Inhibition of human liver microsomal CYP2D6; type: in vitro ADME; conditions: human liver microsomes, 10 μM test substance; read-out: Relative inhibition rate (%) CYP2D6
T4 construct: from tissue; host or cells: human liver microsomes
T4 sequence (P10635 whole entry): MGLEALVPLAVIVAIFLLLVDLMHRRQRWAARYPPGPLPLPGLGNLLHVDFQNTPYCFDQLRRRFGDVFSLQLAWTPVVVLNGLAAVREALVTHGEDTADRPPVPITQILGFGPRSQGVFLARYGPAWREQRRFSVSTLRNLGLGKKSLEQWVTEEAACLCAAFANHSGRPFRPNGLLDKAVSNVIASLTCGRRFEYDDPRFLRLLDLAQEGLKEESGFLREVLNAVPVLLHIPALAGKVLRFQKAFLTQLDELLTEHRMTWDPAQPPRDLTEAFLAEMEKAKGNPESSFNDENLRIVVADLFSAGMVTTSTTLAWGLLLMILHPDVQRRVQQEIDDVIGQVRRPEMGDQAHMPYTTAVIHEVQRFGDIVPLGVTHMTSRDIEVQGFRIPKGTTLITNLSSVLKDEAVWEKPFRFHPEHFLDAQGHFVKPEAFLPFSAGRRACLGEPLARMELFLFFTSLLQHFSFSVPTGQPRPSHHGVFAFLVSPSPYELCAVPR
Experimental: as §1

CYP3A4 = target: T5, CYP3A4 (Homo sapiens, UniProt P08684); assay: Inhibition of human liver microsomal CYP3A4; type: in vitro ADME; conditions: human liver microsomes, 10 μM test substance
T5 construct: from tissue; host or cells: human liver microsomes
T5 sequence (P08684 whole entry): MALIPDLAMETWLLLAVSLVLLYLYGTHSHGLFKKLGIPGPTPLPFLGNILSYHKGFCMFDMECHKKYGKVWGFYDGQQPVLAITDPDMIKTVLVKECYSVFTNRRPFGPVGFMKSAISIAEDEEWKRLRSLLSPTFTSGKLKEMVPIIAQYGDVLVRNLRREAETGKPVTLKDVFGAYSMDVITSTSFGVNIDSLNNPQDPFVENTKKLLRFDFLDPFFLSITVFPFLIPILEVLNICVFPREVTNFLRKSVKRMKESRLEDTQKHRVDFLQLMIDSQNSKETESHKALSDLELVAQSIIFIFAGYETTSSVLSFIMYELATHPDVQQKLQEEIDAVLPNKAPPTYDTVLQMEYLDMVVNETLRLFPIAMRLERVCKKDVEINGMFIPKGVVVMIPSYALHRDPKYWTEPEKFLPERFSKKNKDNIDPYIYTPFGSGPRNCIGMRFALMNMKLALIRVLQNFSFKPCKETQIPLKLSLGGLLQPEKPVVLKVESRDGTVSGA
Experimental: as §1

hTLR7 = target: T6, hTLR7 (Homo sapiens, UniProt Q9NYK1); assay: Agonistic activity on human TLR7 in HEK-Blue hTLR7 cells (QUANTI-Blue); type: cell-based; conditions: 24 h incubation, OD650, read-out: hTLR 7 EC50
T6 construct: expressed in transfected cells; host or cells: HEK-Blue hTLR7 cells
T6 sequence (Q9NYK1 27-1049): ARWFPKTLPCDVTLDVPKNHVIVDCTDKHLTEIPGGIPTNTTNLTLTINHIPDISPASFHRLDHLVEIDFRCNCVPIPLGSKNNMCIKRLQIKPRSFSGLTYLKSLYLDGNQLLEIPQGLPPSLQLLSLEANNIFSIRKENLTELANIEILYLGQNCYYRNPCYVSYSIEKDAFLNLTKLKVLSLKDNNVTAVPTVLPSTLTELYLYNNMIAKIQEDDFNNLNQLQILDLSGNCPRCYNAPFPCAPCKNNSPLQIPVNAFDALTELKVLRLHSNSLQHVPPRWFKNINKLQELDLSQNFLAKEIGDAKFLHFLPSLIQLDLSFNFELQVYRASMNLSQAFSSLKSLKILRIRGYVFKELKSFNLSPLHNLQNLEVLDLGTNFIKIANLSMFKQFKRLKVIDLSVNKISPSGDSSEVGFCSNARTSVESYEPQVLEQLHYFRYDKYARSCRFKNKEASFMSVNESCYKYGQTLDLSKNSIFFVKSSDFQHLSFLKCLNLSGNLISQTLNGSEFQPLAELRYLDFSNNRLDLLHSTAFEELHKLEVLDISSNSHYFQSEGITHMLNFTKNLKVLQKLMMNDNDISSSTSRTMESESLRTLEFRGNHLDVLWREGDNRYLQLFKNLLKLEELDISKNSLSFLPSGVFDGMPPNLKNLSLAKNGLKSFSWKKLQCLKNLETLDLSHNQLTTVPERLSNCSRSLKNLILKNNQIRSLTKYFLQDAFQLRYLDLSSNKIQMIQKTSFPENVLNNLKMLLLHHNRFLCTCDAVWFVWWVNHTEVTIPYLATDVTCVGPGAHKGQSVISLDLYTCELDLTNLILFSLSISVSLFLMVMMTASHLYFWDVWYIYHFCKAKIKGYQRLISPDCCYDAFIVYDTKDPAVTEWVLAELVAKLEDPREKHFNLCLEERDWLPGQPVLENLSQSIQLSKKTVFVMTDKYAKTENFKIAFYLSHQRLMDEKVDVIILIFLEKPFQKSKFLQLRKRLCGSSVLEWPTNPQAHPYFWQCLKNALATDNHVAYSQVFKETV

[2] = probe Midazolam, substrate Midazolam, read-out: Relative inhibition rate (%) CYP3A4 (Midazolam)
[3] = probe Testosterone, substrate Testosterone, read-out: Relative inhibition rate (%) CYP3A4 (Testosterone)

| SMILES | EC50 (hTLR8) [nM] | inhibition at 10 µM (CYP1A2) [%] | CC50 at 24 h [1] [µM] | inhibition at 10 µM (CYP2C19) [%] | inhibition at 10 µM (CYP2D6) [%] | inhibition at 10 µM (CYP3A4; [2]) [%] | inhibition at 10 µM (CYP3A4; [3]) [%] | EC50 (hTLR7) [µM] |
| --- | --- | --- | --- | --- | --- | --- | --- | --- |
| CCCCN(C)Cc1c[nH]c(=O)cc1-c1ccc2c(N[C@@](C)(CO)CCCC)nc(N)nc2c1 [Example 36, (R)-4-(2-Amino-4-((1-hydroxy-2-methylhexan-2-yl)amino)quinazolin-7-yl)-5-((butyl(methyl)amino)methyl)pyridin-2(1H)-one] | 66 | 9 | > 100 | 7 | 20.1 | 25.9 | 7.5 | > 100 |
| CCCC[C@](C)(CO)Nc1nc(N)nc2cc(-c3cc(=O)n(C)cc3CN(C)CCO)ccc12 [Example 64, (R)-4-(2-Amino-4-((1-hydroxy-2-methylhexan-2-yl)amino)quinazolin-7-yl)-5-(((2-hydroxyethyl)(methyl)amino)methyl)-1-methylpyridin-2(1H)-one] | 77 | 8.9 | > 100 | 2.4 | 13.8 | 17.6 | 8.8 | > 100 |
| CCCC[C@](C)(CO)Nc1nc(N)nc2cc(-c3cc(=O)[nH]cc3COC)cnc12 [Example 51, (R)-4-(2-Amino-4-((1-hydroxy-2-methylhexan-2-yl)amino)pyrido[3,2-d]pyrimidin-7-yl)-5-(methoxymethyl)pyridin-2(1H)-one] | 12 | 11.1 | > 100 | 22.1 | 9.6 | 7.4 | 34.1 | > 100 |
| CCCC[C@](C)(CO)Nc1nc(N)nc2cc(-c3cc(=O)[nH]cc3CN(C)C)cnc12 [Example 50, (R)-4-(2-Amino-4-((1-hydroxy-2-methylhexan-2-yl)amino)pyrido[3,2-d]pyrimidin-7-yl)-5-((dimethylamino)methyl)pyridin-2(1H)-one] | 16 | 10.7 | > 100 | 11.4 | 9.7 | 13.7 | 11.6 | > 100 |
| CCCCN(C)Cc1cn(C)c(=O)cc1-c1ccc2c(N[C@@](C)(CO)CCCC)nc(N)nc2c1 [Example 56, (R)-4-(2-Amino-4-((1-hydroxy-2-methylhexan-2-yl)amino)quinazolin-7-yl)-5-((butyl(methyl)amino)methyl)-1-methylpyridin-2(1H)-one] | 25 | 10.7 |  | 10.4 | 31.7 | 33.6 | 15.6 | 11.1 |
| CCCC[C@](C)(CO)Nc1nc(N)nc2cc(-c3cc(=O)n(C)cc3CN(C)CCOC)ccc12 [Example 55, (R)-4-(2-Amino-4-((1-hydroxy-2-methylhexan-2-yl)amino)quinazolin-7-yl)-5-(((2-methoxyethyl)(methyl)amino)methyl)-1-methylpyridin-2(1H)-one] | 39 | 9.1 | > 100 | 17 | 19.1 | 38.6 | 17.1 | > 100 |
| CCCC[C@](C)(CO)Nc1nc(N)nc2cc(-c3cc(=O)[nH]cc3CN(C)CCOC)ccc12 [Example 54, (R)-4-(2-Amino-4-((1-hydroxy-2-methylhexan-2-yl)amino)quinazolin-7-yl)-5-(((2-methoxyethyl)(methyl)amino)methyl)pyridin-2(1H)-one] | 106 | 7.9 | > 100 | 0.8 | 12.5 | 22.5 | 8.9 | > 100 |
